Assay results published in US7524840B2, “7,8-disubstituted pyrazolobenzodiazepines” (Hoffmann-La Roche Inc., priority 2004, dated 2009).

Columns and labels:
HCT-116 = HCT-116 (colon) cell-based MTT proliferation assay; conditions: Homo sapiens, HCT-116, 96 h, 4 days post addition of test compound, read-out: Antiproliferative Activity HCT 116 (colon) Assay IC50
Procedure: The estrogen receptor negative epithelial breast carcinoma line (MDA-MB-435) was purchased from American Type Cell Culture Collection (ATCC; Rockville, Md.) and was grown in the medium recommended by ATCC. For analysis of the effect of the test compounds on growth of these cells, the cells were plated at 2000 cells per well in a 96-well tissue culture plate, and were incubated overnight at 37° C. with 5% CO2. The next day, the test compounds were dissolved in 100% dimethyl sulfoxide (DMSO) to yield a 10 mM stock solution. Each compound was diluted with sterile medium to 1 mM in a sufficient quantity to yield a final concentration of 120 μM. The compounds were then serially diluted in medium with 1.2% DMSO. One-fourth final volume of the diluted compounds was transferred to 96 well plates. Test compounds were assayed in duplicate. DMSO was added to a row of “control cells” such that the final concentration of DMSO in each well was 0.3%. Wells to which no cells were added served as the “blank.” Wells to which no inhibitor was added served as “no inhibitor control”. The plates were returned to the incubator, and 5 days post addition of test compound, were analyzed as described below.
3-(4,5-Dimethylthiazole-2-yl)-2,5-diphenyl-2H-tetrazolium bromide (thiazolyl blue; MTT) was added to each well to yield a final concentration of 1 mg/mL. The plates were then incubated at 37° C. for 3 hours. The plates were centrifuged at 1000 rpm for 5 minutes prior to aspiration of the MTT-containing medium. The MTT-containing medium was then removed and 100 μL 100% ethanol was added to each well to dissolve the resulting formazan metabolite. To ensure complete dissolution, plates were shaken for 15 minutes at room temperature. Absorbencies were read in a microtiter plate reader (Molecular Dynamics) at a wavelength of 570 nm with a 650 nm reference. Percent inhibition was calculated by subtracting the absorbance of the blank (no cell) wells from all wells, then subtracting the division of the average absorbance of each test duplicate by the average of the controls from 1.00. Inhibitory concentrations (IC50) were determined from the linear regression of a plot of the logarithm of the concentration versus the percent inhibition.
The colon adenocarcinoma line SW480 and the colon carcinoma line HCT-116 also were obtained from the ATCC and were tested according to the same protocol provided above for MDA-MB-435 cell based assay with the following modifications. Cell line SW480 was plated at 1000 cells per well and analyzed at 6 days post addition of the test compound. Cell line HCT-116 was plated at 1000 cells per well and analyzed at 4 days post addition of test compound.

H460a = H460a cell-based MTT proliferation assay; conditions: 120 h, 5 days post addition of test compound, read-out: Antiproliferative Activity H460a Assay IC90
Procedure: The H460a cell line was purchased from (ATCC; Rockville, Md.) and was grown in the medium recommended by ATCC. For analysis of the effect of the test compounds on growth of these cells, the cells were plated at 150 cells per well in a 96-well tissue culture plate, and were incubated overnight at 37° C. with 5% CO2. The next day, the test compounds were dissolved in 100% dimethyl sulfoxide (DMSO) to yield a 10 mM stock solution. Each compound was diluted with sterile medium to 1 mM in a sufficient quantity to yield a final concentration of 120 μM. The compounds were then serially diluted in medium with 1.2% DMSO. One-fourth final volume of the diluted compounds was transferred to 96 well plates. Test compounds were assayed in duplicate. […] The plates were returned to the incubator, and 5 days post addition of test compound, were analyzed as described below. […] Absorbencies were read in a microtiter plate reader (Molecular Dynamics) at a wavelength of 570 nm with a 650 nm reference. Percent inhibition was calculated by subtracting the absorbance of the blank (no cell) wells from all wells, then subtracting the division of the average absorbance of each test duplicate by the average of the controls from 1.00. Inhibitory concentrations (IC50) were determined from the linear regression of a plot of the logarithm of the concentration versus the percent inhibition.

Compound COc1cc2c(cc1F)C(c1ccccc1Cl)=Nc1c(n[nH]c1C)N2 [IVa, 5-(2-chlorophenyl)-1,2-dihydro-7-fluoro-8-methoxy-3-methyl-pyrazolo[3,4-b][1,4]benzodiazepine] has an IC50 (HCT-116) of 1040 nM and an IC90 (H460a) of 1570 nM.
